The source of these data is ChEMBL document CHEMBL2331543, “Optimization of heterocyclic substituted benzenesulfonamides as novel carbonic anhydrase IX inhibitors and their structure activity relationship” (Eur J Med Chem, 2013).

Each structure is given as a SMILES string.

For one test, the target named is Carbonic anhydrase 9 (Homo sapiens, UniProt Q16790). Briefly: Inhibition of recombinant human carbonic anhydrase 9 after 15 mins by stopped flow CO2 hydration assay.
A further test has as its target Carbonic anhydrase 2 (Homo sapiens, UniProt P00918). Briefly: Inhibition of recombinant human carbonic anhydrase 2 after 15 mins by stopped flow CO2 hydration assay.
The next test deals with Carbonic anhydrase 1 (Homo sapiens, UniProt P00915). In words: Inhibition of recombinant human carbonic anhydrase 1 after 15 mins by stopped flow CO2 hydration assay.
The species entered for test [1] is Homo sapiens. Briefly: Selectivity ratio of IC50 for recombinant human carbonic anhydrase 1 to IC50 for recombinant human carbonic anhydrase 9.
The species entered for test [2] is Homo sapiens. In words: Selectivity ratio of IC50 for recombinant human carbonic anhydrase 2 to IC50 for recombinant human carbonic anhydrase 9.

One may read the IC50 as the concentration that inhibits the measured activity by half.

Carbonic anhydrase 1, sequence (P00915 whole entry): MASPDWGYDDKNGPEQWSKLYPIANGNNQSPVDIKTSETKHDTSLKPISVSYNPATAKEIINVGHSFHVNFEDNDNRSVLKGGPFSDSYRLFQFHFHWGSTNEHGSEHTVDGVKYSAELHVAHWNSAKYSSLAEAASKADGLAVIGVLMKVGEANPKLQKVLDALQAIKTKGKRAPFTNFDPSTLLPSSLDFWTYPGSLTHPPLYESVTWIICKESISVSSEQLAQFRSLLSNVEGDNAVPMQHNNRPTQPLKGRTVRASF

In the case of `COc1cccc(-c2nnc(Nc3ccc(S(N)(=O)=O)cc3)c3ccccc23)c1`, the IC50 is 3930 nM on Carbonic anhydrase 9, over 10000 nM on Carbonic anhydrase 2 and over 10000 nM on Carbonic anhydrase 1.

As to `NS(=O)(=O)c1ccc(Nc2nnc(-c3ccccc3)c3ccccc23)cc1`, the IC50 was over 3900 nM on Carbonic anhydrase 9, over 10000 nM on Carbonic anhydrase 2 and over 10000 nM at Carbonic anhydrase 1.

Take `NS(=O)(=O)c1ccc(Nc2nnc(-c3ccc(C(F)(F)F)cc3)c3ccccc23)cc1`: the IC50 on Carbonic anhydrase 9 is over 3900 nM; on Carbonic anhydrase 2, over 10000 nM; at Carbonic anhydrase 1, over 10000 nM.

Regarding `NS(=O)(=O)c1cccc(Nc2nnc(-c3ccc(Cl)cc3)c3ccccc23)c1`, the results for the IC50 at Carbonic anhydrase 9, on Carbonic anhydrase 2 and at Carbonic anhydrase 1 were over 690 nM, over 10000 nM and over 10000 nM, respectively.

With `COc1ccc(-c2nnc(Nc3cccc(S(N)(=O)=O)c3)c3ccccc23)cc1`, the IC50 at Carbonic anhydrase 9 was over 690 nM; at Carbonic anhydrase 2 it was over 10000 nM; on Carbonic anhydrase 1 it was over 10000 nM.

Consider `NS(=O)(=O)c1ccc(Nc2nnc(-c3cccc(S(N)(=O)=O)c3)c3ccccc23)cc1`, for which the IC50 at Carbonic anhydrase 9 was 18.5 nM; at Carbonic anhydrase 2, 455 nM; on Carbonic anhydrase 1, over 10000 nM. Besides, the Ratio IC50 in the test listed under Homo sapiens [1] was over 1000; in the test filed under Homo sapiens [2] it was 24.5.

With `Nc1ccc(Nc2nnc(-c3cccc(S(N)(=O)=O)c3)c3ccccc23)cc1`, the IC50 at Carbonic anhydrase 9 was 28.3 nM; on Carbonic anhydrase 2, 147 nM; at Carbonic anhydrase 1, over 10000 nM. The Ratio IC50 is over 100 in the test listed under Homo sapiens [1] and 5.3 in the test filed under Homo sapiens [2].

Regarding `NS(=O)(=O)c1ccc(Nc2nnc(-c3ccc(Cl)cc3)c3ccccc23)cc1`, the IC50 on Carbonic anhydrase 9 was over 3900 nM; at Carbonic anhydrase 2, over 10000 nM; on Carbonic anhydrase 1, over 10000 nM.

On to `NS(=O)(=O)c1cccc(Nc2nnc(-c3ccccc3)c3ccccc23)c1`, for which the IC50 at Carbonic anhydrase 9 was over 690 nM; at Carbonic anhydrase 2, over 10000 nM; on Carbonic anhydrase 1, over 10000 nM.

Regarding `NS(=O)(=O)c1cccc(Nc2nnc(-c3ccc(C(F)(F)F)cc3)c3ccccc23)c1`, the IC50 was 690 nM at Carbonic anhydrase 9, over 10000 nM at Carbonic anhydrase 2 and over 10000 nM on Carbonic anhydrase 1.

Regarding `COc1cccc(-c2nnc(Nc3cccc(S(N)(=O)=O)c3)c3ccccc23)c1`, the results for the IC50 at Carbonic anhydrase 9, on Carbonic anhydrase 2 and at Carbonic anhydrase 1 were over 690 nM, 61.8 nM and 220 nM, respectively.

For the molecule `CC(C)(C)c1ccc(Nc2nnc(-c3cccc(S(N)(=O)=O)c3)c3ccccc23)cc1`, the IC50 on Carbonic anhydrase 9 was 29 nM; on Carbonic anhydrase 2, over 10000 nM; at Carbonic anhydrase 1, over 10000 nM. Also, the Ratio IC50 in the test listed under Homo sapiens [1] and in the test filed under Homo sapiens [2] was over 100 each time.

Take `Cc1cc(-c2nnc(Nc3ccc(S(N)(=O)=O)cc3)c3ccccc23)ccc1S(N)(=O)=O`: the results for the IC50 at Carbonic anhydrase 9, at Carbonic anhydrase 2 and on Carbonic anhydrase 1 were 3.3 nM, 26.8 nM and 85.7 nM, respectively. Also, the Ratio IC50 in the test filed under Homo sapiens [1] was found to be 25.7; in the test filed under Homo sapiens [2], 8.1.

Regarding `Cc1ccc(-c2nnc(Nc3ccc(S(N)(=O)=O)cc3)c3ccccc23)cc1S(N)(=O)=O`, the IC50 at Carbonic anhydrase 9 is 0.48 nM; at Carbonic anhydrase 2, 547 nM; at Carbonic anhydrase 1, over 10000 nM. For the same molecule, the Ratio IC50 is over 10000 in the test filed under Homo sapiens [1] and 1140 in the test filed under Homo sapiens [2].
